Patent US8936667B2, “Aqueous leaching process for recovery of precious metals with addition of di-thiooxamide ligand” (Anglo Operations Limited, priority 2009, dated 2015)
Values after ≈ are worked out from the molar mass of the structure shown.

How the values were obtained:
physchem = type: physicochemical
Method: Prior to the leach, the ligand is dissolved in water which has been pre-adjusted to the leach pH. […] It was suspected that the ligand became doubly deprotonated at pH 13.5 and above.

[1] = Leaching of Witwatersrand gold ore, parameter studies (Example 2); settings: oxygen/permanganate, Eh above 60 mV; 25° C., 0.9 g/l DTO
Text: A head sample was submitted with every batch of samples in order to minimise errors caused by discrepancies in analysis among batches. The metal extractions for a particular batch of samples were therefore calculated using the head sample analysis from the same batch.
Deionised water was used in all preparation, dissolution, leach and washing steps.
The leach procedure was as follows:
The required amounts of ligand and alkaline water were mixed in a jacketed leach reactor until the ligand was fully dissolved. The ore was then added to the solution (unless otherwise specified, initial solids concentration was 17% m/m) and the reactor lid was fitted on. A stirring impeller, pH and (Ag/AgCl) redox electrodes, titration dispensing tube, temperature probe and gas distribution tube (if oxygen was used) were fitted into ports in the lid. The ore was then leached for the required amount of time. A water bath was used to maintain the leach temperature for the duration of the leach. The leach pH was controlled with an autotitrator. If oxygen was the oxidant, a mass flow controller was used to control oxygen-flow into the solution. At the end of the leach period, the slurry was filtered and the residue was given at least two water washes using water of the same pH as the leach solution, followed by a final wash with deionised water. […]

Compound: NC(=S)C(N)=S [DTO, dithiooxamide]
- Solubility in water (physchem): does not have good solubility in water
- Solubility of the ligand (physchem): extremely low
- pKa (physchem): 11
- solubility (physchem; pH 12, aqueous buffer, thermodynamic from solid): ~900 µg/mL (≈ 7.49 mM)
- Dissolution of ligand in water pre-adjusted to leach pH (physchem; pH 13.5 to 14 compared with pH 11 to 13): dissolved far more readily
- Leach time to maximum gold extraction [1]: 4 h
